Results: US11180530B2, “Salt of phenylpropionamide derivative and preparation method therefor” (priority 2017, dated 2021)
Counter-ions that a name gives are not always drawn. Like-named read-outs stand apart in the source and are kept apart here. Where a SMILES comes first, the peptide text is derived from it. [ ]: non-standard residue; d: D form. The star is where a group is joined. Gly(N-(2R-Ph-propyl)) = C[C@@H](CNCC(=O)O)c1ccccc1; Piperidin1yl(4-NH2,4-COOH) = NC1(C(=O)O)CCN(*)CC1

Columns and labels:
[1] = type: physicochemical
Method: Samples of the compound represented by formula (I) and acetate, hydrochloride, citrate and phosphate of the compound represented by formula (I) were respectively placed open and evenly spread, so that the stability of the samples were investigated under the conditions of room temperature, heating (40° C., 60° C.), illumination (4500Lux) and high humidity (RH75% and RH90%). The sampling period is 20 days.

[2] = type: physicochemical; remark: listed apart in the source
Method: Samples of acetate, hydrochloride, citrate and phosphate of the compound represented by formula (I) were subjected to a long-term accelerated stability investigation for 6 months under dark and sealed conditions (the inner package is a medicinal low-density polyethylene composite film and the outer package is aluminum foil), humidity (60% RH), temperature (4° C., 25° C.) and with/without nitrogen protection.

[3] = 25° C., 60% RH, nitrogen protection, 1 month
[4] = 25° C., 60% RH, nitrogen protection, 3 months
[5] = 25° C., 60% RH, nitrogen protection, 6 months
[6] = 25° C., 60% RH, nitrogen protection, initial

Q: Which results are given for `CC(C)C[C@@H](NC(=O)[C@@H](Cc1ccccc1)NC(=O)CNC[C@H](C)c1ccccc1)C(=O)N[C@H](CCCCN)C(=O)N1CCC(N)(C(=O)O)CC1` [Acetate (1:1)] (H-[Gly(N-(2R-Ph-propyl))][dF][dL][dK]-{Piperidin1yl(4-NH2,4-COOH)})?
A: Stability (conclusion in words) ([1]; illumination, 40° C., 60° C.): degraded varying degrees; Long-term stability (conclusion in words) ([2]; 6 months, 4° C., 25° C., 60% RH, with/without nitrogen protection, amorphous samples): stable

Q: With `CC(C)C[C@@H](NC(=O)[C@@H](Cc1ccccc1)NC(=O)CNC[C@H](C)c1ccccc1)C(=O)N[C@H](CCCCN)C(=O)N1CCC(N)(C(=O)O)CC1` [Citrate (1:2)] (H-[Gly(N-(2R-Ph-propyl))][dF][dL][dK]-{Piperidin1yl(4-NH2,4-COOH)}) as the compound, how does the “Stability (conclusion in words)” value ([1]; high temperature of 60° C.) read?
A: degraded greatly

Q: With `CC(C)C[C@@H](NC(=O)[C@@H](Cc1ccccc1)NC(=O)CNC[C@H](C)c1ccccc1)C(=O)N[C@H](CCCCN)C(=O)N1CCC(N)(C(=O)O)CC1` [Embodiment 2, 4-amino-1-((2R,5R,8R,14R)-2-(4-aminobutyl)-8-benzyl-5-isobutyl-4,7,10-trioxo-14-phenyl-3,6,9,12-tetraazapentadecan-1-acyl)piperidine-4-carboxylic acid] (H-[Gly(N-(2R-Ph-propyl))][dF][dL][dK]-{Piperidin1yl(4-NH2,4-COOH)}) as the compound, how does the Purity % ([1]; 25° C., 5 days) read?
A: 97.64%

Q: What about the Purity % ([1]; 25° C., 10 days) of the same compound?
A: 97.64%

Q: What about the Purity % ([1]; 25° C., 20 days) of the same compound?
A: 97.63%

Q: What about the Purity % ([1]; 40° C., 5 days) of the same compound?
A: 96.23%

Q: What about the Purity % ([1]; 4500 Lux, 0 days (initial)) of the same compound?
A: 97.65%

Q: And the Purity % ([1]; 4500 Lux, 5 days)?
A: 96.99%

Q: What about the Purity % ([1]; 4500 Lux, 10 days) of the same compound?
A: 96.68%

Q: And the Purity % ([1]; 4500 Lux, 20 days)?
A: 96.72%

Q: For `CC(C)C[C@@H](NC(=O)[C@@H](Cc1ccccc1)NC(=O)CNC[C@H](C)c1ccccc1)C(=O)N[C@H](CCCCN)C(=O)N1CCC(N)(C(=O)O)CC1` [Embodiment 6, 4-amino-1-((2R,5R,8R,14R)-2-(4-aminobutyl)-8-benzyl-5-isobutyl-4,7,10-trioxo-14-phenyl-3,6,9,12-tetraazapentadecan-1-acyl)piperidine-4-carboxylic acid] (H-[Gly(N-(2R-Ph-propyl))][dF][dL][dK]-{Piperidin1yl(4-NH2,4-COOH)}), which Purity % ([1]; 25° C., 5 days) is on record?
A: 99.27%

Q: What about the Purity % ([1]; 25° C., 10 days) of the same compound?
A: 99.27%

Q: And the Purity % ([1]; 25° C., 20 days)?
A: 99.30%

Q: And the Purity % ([1]; 40° C., 5 days)?
A: 99.03%

Q: What about the Purity % ([1]; 4500 Lux, 0 days (initial)) of the same compound?
A: 99.32%

Q: And the Purity % ([1]; 4500 Lux, 5 days)?
A: 97.13%

Q: And the Purity % ([1]; 4500 Lux, 10 days)?
A: 95.32%

Q: What about the Purity % ([1]; 4500 Lux, 20 days) of the same compound?
A: 92.39%

Q: For `CC(C)C[C@@H](NC(=O)[C@@H](Cc1ccccc1)NC(=O)CNC[C@H](C)c1ccccc1)C(=O)N[C@H](CCCCN)C(=O)N1CCC(N)(C(=O)O)CC1` [Embodiment 13, 4-amino-1-((2R,5R,8R,14R)-2-(4-aminobutyl)-8-benzyl-5-isobutyl-4,7,10-trioxo-14-phenyl-3,6,9,12-tetraazapentadecan-1-acyl)piperidine-4-carboxylic acid] (H-[Gly(N-(2R-Ph-propyl))][dF][dL][dK]-{Piperidin1yl(4-NH2,4-COOH)}), which Purity % ([1]; 4500 Lux, 0 days (initial)) is on record?
A: 97.39%

Q: And the Purity % ([1]; 4500 Lux, 5 days)?
A: 97.29%

Q: And the Purity % ([1]; 4500 Lux, 10 days)?
A: 97.28%

Q: What about the Purity % ([1]; 4500 Lux, 20 days) of the same compound?
A: 97.28%

Q: With `CC(C)C[C@@H](NC(=O)[C@@H](Cc1ccccc1)NC(=O)CNC[C@H](C)c1ccccc1)C(=O)N[C@H](CCCCN)C(=O)N1CCC(N)(C(=O)O)CC1` [hydrochloride (1:3)] (H-[Gly(N-(2R-Ph-propyl))][dF][dL][dK]-{Piperidin1yl(4-NH2,4-COOH)}) as the compound, how does the “Stability (conclusion in words)” value ([1]; illumination condition) read?
A: slightly degraded

Q: What about the “Stability (conclusion in words)” value ([1]; other conditions (than illumination)) of the same compound?
A: stable

Q: Which results are given for `CC(C)C[C@@H](NC(=O)[C@@H](Cc1ccccc1)NC(=O)CNC[C@H](C)c1ccccc1)C(=O)N[C@H](CCCCN)C(=O)N1CCC(N)(C(=O)O)CC1` [Embodiment 4, 4-amino-1-((2R,5R,8R,14R)-2-(4-aminobutyl)-8-benzyl-5-isobutyl-4,7,10-trioxo-14-phenyl-3,6,9,12-tetraazapentadecan-1-acyl)piperidine-4-carboxylic acid] (H-[Gly(N-(2R-Ph-propyl))][dF][dL][dK]-{Piperidin1yl(4-NH2,4-COOH)})?
A: Purity % ([1]; 25° C., 5 days): 97.56%; Purity % ([1]; 25° C., 10 days): 97.44%; Purity % ([1]; 25° C., 20 days): 97.28%; Purity % ([1]; 40° C., 5 days): 86.31%; Purity % ([1]; 4500 Lux, 0 days (initial)): 97.70%; Purity % ([1]; 4500 Lux, 5 days): 95.83%; Purity % ([1]; 4500 Lux, 10 days): 94.91%; Purity % ([1]; 4500 Lux, 20 days): 92.17%

Q: With `CC(C)C[C@@H](NC(=O)[C@@H](Cc1ccccc1)NC(=O)CNC[C@H](C)c1ccccc1)C(=O)N[C@H](CCCCN)C(=O)N1CCC(N)(C(=O)O)CC1` [Embodiment 3, 4-amino-1-((2R,5R,8R,14R)-2-(4-aminobutyl)-8-benzyl-5-isobutyl-4,7,10-trioxo-14-phenyl-3,6,9,12-tetraazapentadecan-1-acyl)piperidine-4-carboxylic acid] (H-[Gly(N-(2R-Ph-propyl))][dF][dL][dK]-{Piperidin1yl(4-NH2,4-COOH)}) as the compound, how does the Purity % ([2]; 4° C., 1 month) read?
A: 99.59%

Q: And the Purity % ([2]; 4° C., 3 months)?
A: 99.58%

Q: And the Purity % ([2]; 4° C., 6 months)?
A: 99.60%

Q: What about the Purity % ([2]; 4° C., initial) of the same compound?
A: 99.59%

Q: What about the Aspect [2, 3] of the same compound?
A: White

Q: What about the Purity % [2, 3] of the same compound?
A: 99.58%

Q: What about the Aspect [2, 4] of the same compound?
A: White

Q: And the Purity % [2, 4]?
A: 99.51%

Q: And the Aspect [2, 5]?
A: White

Q: What about the Purity % [2, 5] of the same compound?
A: 99.54%

Q: What about the Aspect [2, 6] of the same compound?
A: White

Q: What about the Purity % [2, 6] of the same compound?
A: 99.59%

Q: And the Aspect ([2]; 25° C., 60% Rh, 1 month)?
A: White

Q: And the Purity % ([2]; 25° C., 60% Rh, 1 month)?
A: 99.62%

Q: And the Aspect ([2]; 25° C., 60% Rh, 3 months)?
A: White

Q: What about the Purity % ([2]; 25° C., 60% Rh, 3 months) of the same compound?
A: 99.61%

Q: What about the Aspect ([2]; 25° C., 60% Rh, 6 months) of the same compound?
A: White

Q: And the Purity % ([2]; 25° C., 60% Rh, 6 months)?
A: 99.57%

Q: What about the Aspect ([2]; 25° C., 60% Rh, initial) of the same compound?
A: White

Q: And the Purity % ([2]; 25° C., 60% Rh, initial)?
A: 99.59%

Q: Which “Stability (conclusion in words)” value ([1]; illumination and high temperature, 20 days) does the source give for `CC(C)C[C@@H](NC(=O)[C@@H](Cc1ccccc1)NC(=O)CNC[C@H](C)c1ccccc1)C(=O)N[C@H](CCCCN)C(=O)N1CCC(N)(C(=O)O)CC1` [hydrochloride (1:2)] (H-[Gly(N-(2R-Ph-propyl))][dF][dL][dK]-{Piperidin1yl(4-NH2,4-COOH)}) here?
A: slightly degraded

Q: What does the source list for `CC(C)C[C@@H](NC(=O)[C@@H](Cc1ccccc1)NC(=O)CNC[C@H](C)c1ccccc1)C(=O)N[C@H](CCCCN)C(=O)N1CCC(N)(C(=O)O)CC1` [Embodiment 14, 4-amino-1-((2R,5R,8R,14R)-2-(4-aminobutyl)-8-benzyl-5-isobutyl-4,7,10-trioxo-14-phenyl-3,6,9,12-tetraazapentadecan-1-acyl)piperidine-4-carboxylic acid] (H-[Gly(N-(2R-Ph-propyl))][dF][dL][dK]-{Piperidin1yl(4-NH2,4-COOH)})?
A: Purity % ([1]; 4500 Lux, 0 days (initial)): 99.19%; Purity % ([1]; 4500 Lux, 5 days): 99.15%; Purity % ([1]; 4500 Lux, 10 days): 99.12%; Purity % ([1]; 4500 Lux, 20 days): 99.12%

Q: With `CC(C)C[C@@H](NC(=O)[C@@H](Cc1ccccc1)NC(=O)CNC[C@H](C)c1ccccc1)C(=O)N[C@H](CCCCN)C(=O)N1CCC(N)(C(=O)O)CC1` [Acetate (1:2)] (H-[Gly(N-(2R-Ph-propyl))][dF][dL][dK]-{Piperidin1yl(4-NH2,4-COOH)}) as the compound, how does the “Stability (conclusion in words)” value ([1]; high temperature) read?
A: poor stability

Q: What about the “acetate (radical) content by ion chromatography” value ([1]; high temperature, after the 20-day experiment) of the same compound?
A: greatly reduced

Q: Which results are given for `CC(C)C[C@@H](NC(=O)[C@@H](Cc1ccccc1)NC(=O)CNC[C@H](C)c1ccccc1)C(=O)N[C@H](CCCCN)C(=O)N1CCC(N)(C(=O)O)CC1` [Embodiment 11, 4-amino-1-((2R,5R,8R,14R)-2-(4-aminobutyl)-8-benzyl-5-isobutyl-4,7,10-trioxo-14-phenyl-3,6,9,12-tetraazapentadecan-1-acyl)piperidine-4-carboxylic acid] (H-[Gly(N-(2R-Ph-propyl))][dF][dL][dK]-{Piperidin1yl(4-NH2,4-COOH)})?
A: Purity % ([2]; 4° C., 1 month): 99.49%; Purity % ([2]; 4° C., 3 months): 99.56%; Purity % ([2]; 4° C., 6 months): 99.57%; Purity % ([2]; 4° C., initial): 99.50%; Purity % [2, 3]: 99.50%; Purity % [2, 4]: 99.51%; Purity % [2, 5]: 99.51%; Purity % [2, 6]: 99.50%; Purity % ([2]; 25° C., 60% Rh, 1 month): 99.50%; Purity % ([2]; 25° C., 60% Rh, 3 months): 99.52%; Purity % ([2]; 25° C., 60% Rh, 6 months): 99.5%; Purity % ([2]; 25° C., 60% Rh, initial): 99.50%

Q: For `CC(C)C[C@@H](NC(=O)[C@@H](Cc1ccccc1)NC(=O)CNC[C@H](C)c1ccccc1)C(=O)N[C@H](CCCCN)C(=O)N1CCC(N)(C(=O)O)CC1` [Embodiment 12, 4-amino-1-((2R,5R,8R,14R)-2-(4-aminobutyl)-8-benzyl-5-isobutyl-4,7,10-trioxo-14-phenyl-3,6,9,12-tetraazapentadecan-1-acyl)piperidine-4-carboxylic acid] (H-[Gly(N-(2R-Ph-propyl))][dF][dL][dK]-{Piperidin1yl(4-NH2,4-COOH)}), which Purity % ([1]; 25° C., 5 days) is on record?
A: 96.93%

Q: And the Purity % ([1]; 25° C., 10 days)?
A: 96.80%

Q: And the Purity % ([1]; 25° C., 20 days)?
A: 96.97%

Q: And the Purity % ([1]; 4500 Lux, 0 days (initial))?
A: 97.04%

Q: What about the Purity % ([1]; 4500 Lux, 5 days) of the same compound?
A: 96.65%

Q: And the Purity % ([1]; 4500 Lux, 10 days)?
A: 96.63%

Q: What about the Purity % ([1]; 4500 Lux, 20 days) of the same compound?
A: 96.77%
